Test results from PMC8112869, “Therapeutic inhibition of keratinocyte TRPV3 sensory channel by local anesthetic dyclonine” (eLife, 2021).

Columns and labels:
[1] = system: T-Rex 293 cells expressing TRPV3 G573C; test: Cell death analysis by flow cytometry (propidium iodide), cells expressing G573C mutant; assay type: cell-based, Homo sapiens
Experimental: (§1) T-Rex 293 cells were grown in DMEM containing 4.5 mg/ml glucose, 10% (vol/vol) FBS, 50 units/ml penicillin, 50 μg/ml streptomycin, and blasticidin S (10 μg/ml), and were incubated at 37°C in a humidified incubator gassed with 5% CO2. Transfections were performed in wells of a 24-well plate using lipofectamine 2000 (Invitrogen). […] Expression of GFP fluorescence detected by an epifluorescence microscope was used as an indicator of gene expression. After treatments with the compounds for 12 hr, cells were collected, washed twice with PBS, resuspended, and then dyed with propidium iodide (PI, Thermo Fisher Scientific) in the dark according to the manufacturer’s instructions. The membrane integrity of the cells was assessed using a BD FACSCelesta flow cytometer equipped with BD Accuri C6 software (BD Biosciences, USA).

mouse TRPV3 = molecular target: T1, mouse TRPV3 (Mus musculus, UniProt Q8K424); test: cell-based; conditions: for EC50: EC50 of 2-APB for TRPV3 activation; for TRPV3 currents response, of control level: 100 µM 2-APB, –60 mV, after sensitization
T1 sequence (Q8K424 1-791): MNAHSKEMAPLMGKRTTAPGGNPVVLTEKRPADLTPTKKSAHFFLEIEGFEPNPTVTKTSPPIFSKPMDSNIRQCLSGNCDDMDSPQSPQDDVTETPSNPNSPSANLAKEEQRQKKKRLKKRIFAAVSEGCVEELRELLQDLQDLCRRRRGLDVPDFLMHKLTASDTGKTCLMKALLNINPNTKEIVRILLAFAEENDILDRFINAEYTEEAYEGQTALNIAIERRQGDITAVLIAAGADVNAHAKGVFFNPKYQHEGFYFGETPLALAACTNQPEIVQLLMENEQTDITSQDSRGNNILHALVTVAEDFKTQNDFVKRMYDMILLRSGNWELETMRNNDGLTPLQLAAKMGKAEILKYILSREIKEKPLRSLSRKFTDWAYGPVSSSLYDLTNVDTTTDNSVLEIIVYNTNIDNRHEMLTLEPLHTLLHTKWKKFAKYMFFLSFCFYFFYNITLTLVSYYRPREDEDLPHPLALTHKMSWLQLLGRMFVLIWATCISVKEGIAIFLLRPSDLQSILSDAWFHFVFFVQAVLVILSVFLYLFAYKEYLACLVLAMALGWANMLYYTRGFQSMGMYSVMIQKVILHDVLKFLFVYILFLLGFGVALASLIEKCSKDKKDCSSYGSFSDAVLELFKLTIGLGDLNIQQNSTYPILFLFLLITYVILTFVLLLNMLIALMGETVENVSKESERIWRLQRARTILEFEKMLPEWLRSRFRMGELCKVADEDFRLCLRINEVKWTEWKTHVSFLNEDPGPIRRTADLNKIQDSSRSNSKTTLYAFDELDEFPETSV
From the text: The WT mouse TRPV3 (mTRPV3), human TRPV3 (hTRPV3), rat TRPV1, rat TRPV2, rat TRPM8, and mouse TRPA1 cDNAs were generously provided by Dr. Feng Qin (State University of New York at Buffalo, Buffalo, USA). The GFP-mTRPV3 WT and the mutants (mTRPV3-G573S and mTRPV3-G573C) in pcDNA4/TO vector were gifts from Dr. Michael X Zhu (The University of Texas Health Science Center at Houston, Houston, USA). The WT fTRPV3 was kindly provided by Dr. Makoto Tominaga (Department of Physiological Sciences, SOKENDAI, Okazaki, Japan). All mutations were made using the overlap-extension polymerase chain reaction method as previously described ([Tian et al., 2019]). The resulting mutations were then verified by DNA sequencing. HEK 293T and T-Rex 293 cells were grown in Dulbecco’s modified Eagle’s medium (DMEM, Thermo Fisher Scientific, MA) containing 4.5 mg/ml glucose, 10% heat-inactivated fetal bovine serum (FBS), 50 units/ml penicillin, and […], and were incubated at 37°C in a humidified incubator gassed with 5% CO2. For T-Rex 293, blasticidin S (10 μg/ml) was also included. Cells grown into ~80% confluence were transfected with the desired DNA constructs using either the standard calcium phosphate precipitation method or lipofectamine 2000 (Invitrogen, Carlsbad, CA) following the protocol provided by the manufacturer. Transfected HEK 293T cells were reseeded on 12 mm round glass coverslips coated by poly-L-lysine. Experiments took place ~12–24 hr after transfection.
Conventional whole-cell and excised patch-clamp recording methods were used. For the recombinant expressing system, green fluorescent EGFP was used as a surface marker for gene expression. Recording pipettes were pulled from borosilicate glass capillaries (World Precision Instruments) and fire-polished to a resistance between 2 and 4 MΩ when filled with internal solution containing (in mM) 140 CsCl, 2.0 MgCl2, 5 EGTA, and 10 HEPES, pH 7.4 (adjusted with CsOH). Bath solution contained (in mM): 140 NaCl, 5 KCl, 3 EGTA, and 10 HEPES, pH 7.4 adjusted with NaOH. For recordings in keratinocytes, the bath saline consisted of (in mM) 140 NaCl, 5 KCl, 2 MgCl2, 2 CaCl2, 10 glucoses, and 10 HEPES, pH 7.4 adjusted with NaOH, and the pipette solution contained (in mM) 140 CsCl, 5 EGTA, and 10 HEPES, pH 7.3 adjusted with CsOH. For single-channel recordings, the pipette solution and bath solution were symmetrical and contained (in mM) 140 NaCl, 5 KCl, 3 EGTA, and 10 HEPES, pH 7.4. Isolated cells were voltage clamped and held at –60 mV using an EPC10 amplifier with the Patchmaster software (HEKAElectronics, Lambrecht, Germany). For a subset of recordings, currents were amplified using an Axopatch 200B amplifier (Molecular Devices, Sunnyvale, CA) and recorded through a BNC-2090/MIO acquisition system (National Instruments, Austin, TX) using QStudio developed by Dr. Feng Qin at State University of New York at Buffalo. Whole-cell recordings were typically sampled at 5 kHz and filtered at 1 kHz, and single-channel recordings were sampled at 25 kHz and filtered at 10 kHz. The compensation of pipette series resistance and capacitance was compensated using the built-in circuitry of the amplifier (>80%) to reduce voltage errors. Exchange of external solution was performed using a gravity-driven local perfusion system. […] Dyclonine hydrochloride, MTSET and carvacrol were purchased from MCE (MedChemExpress). Unless otherwise noted, all chemicals were purchased from Sigma (Millipore Sigma, St. Louis, MO). Water-insoluble reagents were dissolved in pure ethanol or DMSO to make a stock solution and diluted into the recording solution at the desired final concentrations before the experiment. […] In the scratching behavior experiments, carvacrol was first dissolved in 10% ethanol and then diluted in normal saline before administration.

[2] = system: T-Rex 293 cells expressing TRPV3 G573S; test: Cell death analysis by flow cytometry (propidium iodide), cells expressing G573S mutant; assay type: cell-based, Homo sapiens
Experimental: as §1

[3] = dyclonine (50 μM) or 2-APB (30 μM) alone, averaged from seven experiments
[4] = dyclonine (50 μM) added to 2-APB (30 μM), averaged

SMILES | cell death ratio [1, 3] | initial TRPV3 current (mouse TRPV3; 100 μM 2-APB without dyclonine) | EC50 (mouse TRPV3; with 3 μM dyclonine) | EC50 (mouse TRPV3; without dyclonine, after full sensitization) | repetitions to reach full sensitization level (mouse TRPV3; repeated 100 μM 2-APB alone) | Hill coefficient nH of 2-APB activation (mouse TRPV3; with 3 μM dyclonine) | Hill coefficient nH of 2-APB activation (mouse TRPV3; without dyclonine) | cell death ratio [2, 3] | cell death ratio [1, 4] | IC50 (mouse TRPV3) | TRPV3 currents response, of control level (mouse TRPV3; 5 µM dyclonine) | TRPV3 currents response, of control level (mouse TRPV3; 10 µM dyclonine) | initial TRPV3 current (mouse TRPV3; 100 μM 2-APB with 5 μM dyclonine) | Hill coefficient nH of inhibition of TRPV3 currents (mouse TRPV3; 2-APB-evoked, WT mouse TRPV3) | inhibition at 10 µM (mouse TRPV3; HEK-293T, read-out: inhibition of TRPV3 current (reduction in current amplitude)) | repetitions to reach the current level of full sensitization (mouse TRPV3; repeated 100 μM 2-APB with 5 μM dyclonine) | cell death ratio [2, 4]
NCCOB(c1ccccc1)c1ccccc1 [2-APB, 2-aminoethoxydiphenyl borate] | 47.91% ± 5.54% | 86.43 ± 5.9 pA/pF | 22 ± 0.86 µM | 22.93 ± 0.02 µM | approximately eight | 1.7 ± 0.1 | 1.6 ± 0.1 | 53.60% ± 5.88% | – | – | – | – | – | – | – | – | –
CCCCOc1ccc(C(=O)CCN2CCCCC2)cc1 [dyclonine] | 14.98% ± 4.40% | – | – | – | – | – | – | 12.45% ± 2.54% | 13.85% ± 2.49% | 3.2 ± 0.24 µM | 30% ± 2% | 15% ± 3% | 31.12 ± 2.86 pA/pF | 2.2 ± 0.32 | 87% | ~ 16 repetitions | 17.68% ± 5.66%
